We go through two compounds from patent publication US20250092395A1, “A GLUN2D INHIBITOR FOR USE IN THE TREATMENT OR RELAPSE PREVENTION OF A DEPRESSIVE EPISODE” (priority 2022, published 2025).

Molecules are shown by their SMILES. Entries after “also recorded” stand apart in the source; their conditions may differ. Counter-ions that a name gives are not always drawn.

The subject of data set [1] is CA3-CA1 synapse in hippocampal brain slices of CDM mice. In words: aLTP/aLTD inducibility in hippocampal brain slices of CDM mice after in vivo treatment. The settings on record: for stress-induced LTP blockade, reversal: NAB-14 in vivo. The method, then: Animals were preoxygenated in a 100% oxygen atmosphere for 5 min before cervical dislocation and decapitated according to national and institutional guidelines. Transverse 300 […] were cut from hippocampus with a Vibratome (VT1200, Leica, Japan). Slices were prepared in artificial cerebrospinal fluid (ACSF) containing (in mmol/I): 125 NaCl, 25 NaHCO3, 1.25 NaH2PO4, 2.5 KCL, 1 MgCl2, 27 Glucose, 2 CaCl2) bubbled with carbogen (95% O2, 5% CO2).
After 20 min resting time at 35° C., slices were kept at room temperature in aCSF and transferred into the recording chamber (volume approx. 2-3 ml) and continuously superfused with aCSF (rate approx. 5-10 ml/min-). Differential interference contrast video microscopy was used to identify location of CA1 pyramidal neurons (Zeiss Axioskop 2 FS plus, Zeiss Microscopy, Germany). Beside optical identification neurons were classified according to their characteristic firing frequency adaptation to long depolarising current pulses. Borosilicate glass tubes (2.0 mm outer diameter, 0.5 mm wall thickness; Hilgenberg, Germany) were used to pull patch pipettes. Pipettes with a resistance of 5-10 MΩ were used and series resistance of 10-50 MΩ was compensated by bridge balance. Patch pipettes were filled with an internal solution containing (in mM) for EPSP-measurements: 132K-gluconate, 20KCL, 2MgCl2, 10Hepes, 0.1EGTA, 4 Na2ATP, 0.3NaGTP. PH was adjusted to 7.2 with KOH. For current measurements: 135Csgluconate, 2CsCl, 5 QX314, 10 Hepes, 10EGTA, 2MgCl2, 2Na2ATP, 2TEACI, pH was adjusted to 7.2 with HCl. Osmolarity (280-300 mosmol/1) was controlled at the beginning of each experimental day with Osmomat (Gonotec GmbH, Germany).
A stimulation pipette (patch pipette with 1-3 MΩ resistance when filled with internal solution) was placed superficially in the stratum radiatum of the CA1 region in approximately […] distance to the pyramidal cell layer. Subthreshold excitatory postsynaptic potentials (EPSPs, 2 7 mV) were evoked by Schaffer collateral stimulation with voltage pulses of 10-80 V (frequency of 0.1 Hz, duration of 200 μs) using a stimulus isolator (Model 2100 Isolated pulse stimulator, Carlsborg, U.S.A.). Resting membrane potentials were between −75 and −65 mV and holding potential was −70 mV. 50 ms current test pulses (leading to 5-10 mV hyperpolarization) were applied to control input and series resistances after every 10th EPSP. EPSPs were combined with APs triggered by short (3 ms) current application of 900 pA via the patch-clamp electrode. EPC-10 amplifiers (HEKA, Germany) were used and signals were filtered at 5 kHz. Patchmaster NEXT software (Version 1.2, HEKA, Germany) was used for data acquisition and experiments were performed at room temperature.
aLTP: Five EPSPs and five postsynaptic APs were paired at 100 Hz with a 5 ms delay (AP after EPSP). Five of these bursts of synchronized EPSP→AP pairs were applied at theta frequency (5 Hz), followed by an interval of 10 sec and 4 more theta blocks, resulting in 125 EPSP/AP pairings.
aLTD: 360 postsynaptic APs were pared with 360 EPSPs with a delay of 20-30 ms between each AP/EPSP pairing at a frequency of 1 Hz. 1 Hz LTD: 600 EPSPs were elicited at a frequency of 1 Hz whilst CA1 pyramidal cell membrane potential was hold at −60 mV.
Long-term plasticity or molecular analyses were assessed as described above after the induction phase of the CDM and the specific treatment.
EPSP measurement: For baseline measurement, the mean amplitudes of 30 consecutive EPSPs before the induction protocol were calculated. 25 min after LTP induction the mean amplitude of 30 consecutive EPSPs was calculated and compared to the baseline of the same measurement. Changes of EPSP amplitudes were expressed as percentages of the baseline measurement and analysed for each experimental group applying a two-tailed Wilcoxon test. The differences between separate experimental groups were assessed using the Mann-Whitney test, not assuming normal distribution. […]

Data set [2] is described as follows: Side effects in in vivo experiments. Also noted: species or system mice.
The test system of data set [3] is NMDAR currents in somatostatin positive Interneurons (SOM). The data set is described as follows: NMDAR currents in voltage-clamp recordings, SOM interneurons. The settings on record: +40 mV, CNQX, bath application 10 μM.
Data set [4] deals with recombinant GluN2D-containing receptors (Rattus norvegicus, UniProt Q62645). The following applies: recombinant GluN2D-containing receptors expressed in mammalian cells; cited from earlier work.
Data set [5] deals with mice subjected to the chronic despair model (CDM). The data set is described as follows: Chronic despair model (CDM) swim test, immobility time. The settings on record: CDM mice, test day. Type of data set: in vivo. The procedure:
Induction phase: Mice were forced to swim in a glass cylinder (0 26 cm, 60 cm high) filled to 25 cm with 25° C. warm water for 10 min on 5 consecutive days. After the swimming, the animals were kept in their cages for two days before treatment and experiment readout was performed. The immobility time was measured in each session.
Behavioral Readout: After the treatment intervention, animals were either tested in an additional swim session (test day) to measure immobility time or tested in the InteliCage using the Nose-pokes sucrose preference test. For the assessment of the immobility time, mice were videotaped and two independent raters who were blinded to the experimental group analyzed the videos. Immobility time was defined as the cumulative time that the animals spend stationary with only enough movements of the tails or the forepaws to keep the head above the water surface. No distance is actively travelled except for passive floating, no directed movement of the front paws observed and the body of the animal mostly oriented parallel to the walls of the cylinder.

The test system of data set [6] is SOM-dependent feedback loop, CA1 PCs. The data set is described as follows: Feedback loop-activating protocol (FLAP) in CA1 PCs. It is filed as cell-based, mice.
Setting [7] is: R,S-ketamine injected shortly before each swim session in the CDM.

As usually defined, the IC50 is the concentration at which inhibition is half-maximal.

Chain of recombinant GluN2D-containing receptors (Q62645 28-1323, other chains not shown): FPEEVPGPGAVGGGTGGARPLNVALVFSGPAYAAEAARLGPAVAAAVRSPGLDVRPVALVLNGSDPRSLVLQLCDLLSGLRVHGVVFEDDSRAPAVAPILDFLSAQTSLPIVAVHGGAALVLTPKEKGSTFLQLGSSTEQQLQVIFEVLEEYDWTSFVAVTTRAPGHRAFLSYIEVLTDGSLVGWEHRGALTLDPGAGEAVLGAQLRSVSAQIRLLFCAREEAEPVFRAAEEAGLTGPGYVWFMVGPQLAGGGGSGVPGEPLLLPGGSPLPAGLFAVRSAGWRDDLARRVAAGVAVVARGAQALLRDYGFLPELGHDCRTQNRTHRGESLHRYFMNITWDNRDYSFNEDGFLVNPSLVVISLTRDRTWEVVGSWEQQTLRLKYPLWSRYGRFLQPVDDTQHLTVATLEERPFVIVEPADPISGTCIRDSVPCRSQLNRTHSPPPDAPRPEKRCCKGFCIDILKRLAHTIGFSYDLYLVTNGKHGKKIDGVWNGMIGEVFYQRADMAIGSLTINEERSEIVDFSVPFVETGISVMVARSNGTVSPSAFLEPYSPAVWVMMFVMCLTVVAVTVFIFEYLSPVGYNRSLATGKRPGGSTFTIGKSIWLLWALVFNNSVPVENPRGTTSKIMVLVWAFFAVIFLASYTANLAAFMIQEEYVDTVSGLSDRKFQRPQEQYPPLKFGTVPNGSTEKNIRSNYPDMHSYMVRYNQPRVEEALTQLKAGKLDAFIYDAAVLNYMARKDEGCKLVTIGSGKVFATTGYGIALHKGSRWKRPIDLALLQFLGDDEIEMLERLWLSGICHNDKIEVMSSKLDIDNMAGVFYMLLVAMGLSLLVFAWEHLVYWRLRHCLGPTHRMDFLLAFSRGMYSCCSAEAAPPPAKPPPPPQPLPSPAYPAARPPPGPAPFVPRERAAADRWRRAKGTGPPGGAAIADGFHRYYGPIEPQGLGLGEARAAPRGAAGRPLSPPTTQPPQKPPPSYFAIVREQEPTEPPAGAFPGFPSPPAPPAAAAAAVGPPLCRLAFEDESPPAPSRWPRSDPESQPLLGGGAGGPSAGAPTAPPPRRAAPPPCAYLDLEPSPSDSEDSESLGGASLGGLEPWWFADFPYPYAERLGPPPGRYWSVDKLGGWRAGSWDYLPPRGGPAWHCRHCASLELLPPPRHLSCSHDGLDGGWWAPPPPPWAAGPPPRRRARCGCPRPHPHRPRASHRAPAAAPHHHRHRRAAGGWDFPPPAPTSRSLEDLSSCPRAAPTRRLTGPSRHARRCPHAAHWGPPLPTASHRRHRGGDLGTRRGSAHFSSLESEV

Turning to `CCN(CC)C(=O)Oc1ccc(C(=O)Nc2cccc3cc[nH]c23)cc1` [NAB-14], the “stress-induced LTP blockade, reversal” value in data set [1] (CDM mice, high dose: 10 mg/kg, 10 μM, 10 mg/kg) is on record as “completely; also recorded: fully reversed”; in data set [1] (CDM mice, high dose: 10 mg/kg, 10 μM, listed as NAB, 10 mg/kg) it was “fully rehabilitated LTP inducibility”; in data set [1] (CDM mice, low dose: 5 mg/kg, 5 μM) it was “partially”. Moreover, in data set [1] (CDM mice, previous NAB-14 treatment), the “EPSP slope and decay changes found in CDM” value is “effectively be reversed; also recorded: completely reversing slope increase and decay changes”. In addition, the side effects result in data set [2] is recorded as “did not show side effects”. Further, the “amplitude of NMDAR currents in SOM interneurons” value (shortened to “amplitude of NMDAR currents”) in data set [3] was “significantly reduced; also recorded: reduce the amplitude of NMDAR currents in SOMs”. The IC50 in data set [4] was 580 nM. Moreover, the immobility time entry in data set [5] (injection of NAB-14 (5/10 μM as printed)) is given as “significantly reduced”. The “EPSP amplitude in the absence of AP bursts” value in data set [6] was “neither NAB14 nor diazepam wash-in significantly altered the EPSP amplitude; also recorded: no significant pre/post changes”.

Consider `CNC1(c2ccccc2Cl)CCCCC1=O` (stereo not shown) [R,S-ketamine, R,S-Ketamine hydrochloride], for which, in data set [1] (CDM mice, R,S-ketamine injection i.p. after CDM induction, hydrochloride), the “stress-induced facilitation of LTD (aLTD, EPSP amplitude min 25 to 30)” value was “fully restored; also recorded: reversed this inducibility”. Further, the “stress-induced blockade of LTP inducibility (aLTP, EPSP amplitude min 25 to 30)” value in data set [1] (CDM mice, single R,S-ketamine injection i.p. after CDM induction, hydrochloride) is on record as “fully restored; also recorded: completely reestablishing stress-induced changes”. Further, in data set [1] (setting [7]), the “stress-induced aLTD facilitation” value is given as “weaker effect” and the “stress-induced aLTP blockade” value is “prevented the stress-induced aLTP blockade”. In addition, the “amplitude of NMDAR currents” value in data set [3] (hydrochloride) is “significantly stronger than in CA1 pyramidal cells; also recorded: significantly more pronounced in SOMs than in PCs”. Besides, in data set [3] (listed as Ketamine, hydrochloride), the “amplitude of NMDAR currents” value was “significantly more pronounced inhibitory effect”. In addition, the immobility time result in data set [5] (10 mg/kg R,S-ketamine intraperitoneal, vs control) is given as “significantly reduced”.
